Measurements published in US8318495B1, “Hematopoietic progenitor cell gene transduction” (Case Western Reserve University, priority 1998, dated 2012).
pIC50: −log10 of the molar value. “And” between values parts separate entries of the source, which are not always exact repeats. Equal entries are not always repeated. Where two headings read alike, the source gives them in different places.

Assays:
[1] = test system: ΔMGMT transduced hematopoietic CD34+ progenitor cells; assay: Drug resistance: CFU survival after BG plus TMZ or BCNU, ΔMGMT transduced cells; assay type: cell-based, human; conditions: for pIC50 / IC90: Homo sapiens, 10 μM BG 1 hour, then drug 2 hours
From the text: CD34+ cells were transduced with MFG-ΔMGMT high titer retroviral supernatant obtained as described in Reese et al. 1996. ΔMGMT encodes a mutant form of O-^6 alkylguanine DNA alkyltransferase (ΔAGT) and contains a point mutation which renders the protein resistant to the inhibitor O^6-benzylguanine (BG). CD34+ cells transduced with ΔMGMT are resistant to the drug combinations BG and 1,3bis(2-chloroethly)-1-nitrosourea (BCNU) (Reese et al. 1996) and BG and temozolomide (TMZ) (Reese et al. 1998). The CD34+ cells were transduced as follows: pMFG-wtMGMT or pMFG-ΔMGMT and pSV2neo DNA were cotransfected into the packaging line GP+E86, followed by viral supernatant infection of the amphotropic cell line GP+envAm12 (Markowitz, D. et al. 1988) (Arthur Bank, Columbia University). To increase titer, a supernatant “ping-pong” method was used (Bodine et al. 1990).
(§1) Drug resistance conferred by ΔMGMT To evaluate drug resistance conferred by ΔMGMT, primary CFU survival at the TMZ or BCNU IC50 and IC90 in transduced or untransduced cells was compared. IC50 (or IC90) is the determination of CFU survival after exposure to TMZ or BCNU in the presence of the AGT inhibitor BG. Following a retroviral transduction period of 72-96 hours, hematopoietic CD34+ progenitor cells were pretreated for 1 hour with 10 μM BG followed by increasing concentrations of TMZ or BCNU for 2 hours. Cells were washed free of drug, plated in methylcellulose and 5 μM BG was added to maintain depletion of endogenous AGT. After culture in methylcellulose, the colonies formed were counted as either CFU-GM, BFU-E and CFU-GEMM (referred to as CFU). Individual CFU were collected from 10 independent experiments, each from a different donor.

[2] = test system: untransduced hematopoietic CD34+ progenitor cells; assay: Drug resistance: CFU survival after BG plus TMZ or BCNU, untransduced cells; assay type: cell-based; conditions: Homo sapiens, 10 μM BG 1 hour, then drug 2 hours
Procedure: as §1

For O=NN(CCCl)C(=O)NCCCl [BCNU, 1,3bis(2-chloroethly)-1-nitrosourea], the “increase in the IC90 after exposure to BG” value (“increase in the IC90” below) ([1]; Dexter) was 2.5 fold, the “average increase in the IC50 after exposure to BG” value ([1]; Dexter (n=2)) was 5.6 fold and the “average fold increase in the IC50 after exposure to BG” value (from here on “average fold increase in the IC50”) ([1]; FN (TMZ n=2, BCNU n=1)) was 2.8 fold. The “increase in the IC90” value ([1]; FN (TMZ n=2, BCNU n=1)) was over 10 fold, the “average increase in the IC50 after exposure to BG” value ([1]; allo MSC (n=1)) was 2 fold and the “increase in the IC90” value ([1]; allo MSC (n=1)) was over 6 fold. The “fold increase in ΔMGMT/untransduced CFU IC50” value ([1]; stroma Allo MSC) was 5.6 fold, the “fold increase in ΔMGMT/untransduced CFU IC90” value ([1]; stroma Allo MSC) was over 6 fold and the “fold increase in ΔMGMT/untransduced CFU IC90” value ([1]; stroma Dexter) was 2.5 fold. For the same compound, the “fold increase in ΔMGMT/untransduced CFU IC50” value ([1]; stroma FN) was 2.8 fold.
Cn1nnc2c(C(N)=O)ncn2c1=O [TMZ, temozolomide] was tested, and the “average fold increase in the IC50” value ([1]; FN (TMZ n=2, BCNU n=1)) was 7.7 fold, the “increase in the IC90” value ([1]; FN (TMZ n=2, BCNU n=1)) was over 8.2 fold and the pIC50 ([1]; read-out: CFU IC50 ΔMGMT, stroma Allo MSC) was 4.15. For the same compound, the pIC50 ([1]; read-out: CFU IC50 ΔMGMT, stroma FN) was 3.91, the pIC50 ([1]; read-out: CFU IC50 ΔMGMT, stroma auto MSC) was 4.19 and the IC90 ([1]; read-out: CFU IC90 ΔMGMT, stroma Allo MSC) was over 300 µM. For the same compound, the IC90 ([1]; read-out: CFU IC90 ΔMGMT, stroma FN) was over 300 µM, the IC90 ([1]; read-out: CFU IC90 ΔMGMT, stroma auto MSC) was over 300 µM and the “average fold increase in the IC50” value ([1]; allo MSC and auto MSC (n=4)) was 5.2 fold. The “increase in the IC90” value ([1]; allo MSC and auto MSC (n=4)) was over 9.8 fold, the “fold increase in ΔMGMT/untransduced CFU IC50” value ([1]; stroma Allo MSC) was 2.8 fold and 2.4 fold and the “fold increase in ΔMGMT/untransduced CFU IC90” value ([1]; stroma Allo MSC) was >6 fold and >5.3 fold. For the same compound, the “fold increase in ΔMGMT/untransduced CFU IC90” value ([1]; stroma FN) was >10.3 fold and >6 fold, the “fold increase in ΔMGMT/untransduced CFU IC50” value ([1]; stroma auto MSC) was 6.5 fold and 8.9 fold and the “fold increase in ΔMGMT/untransduced CFU IC90” value ([1]; stroma auto MSC) was >10.3 fold and 17.7 fold. The pIC50 ([2]; stroma Allo MSC) was 4.59, the IC90 ([2]; stroma Allo MSC) was 48 µM and the IC90 ([2]; stroma FN) was 29 µM. It also gave a pIC50 ([2]; stroma auto MSC) of 5.01 and an IC90 ([2]; stroma auto MSC) of 29 µM.
